From patent US20070112044A1, “Thiadiazoline derivative” (Kyowa Hakko Kogyo Co., Ltd., priority 2003, published 2007)
Where two headings read alike, the source gives them in different places.

Legend:
[1] = system: HCT 116 human colon carcinoma cells; test: Antiproliferative activity against HCT 116 human colon carcinoma cells (XTT); type: cell-based
Description: HCT 116 cells (ATCC No.: CCL-247) were placed on a 96-well microtiter plate (Nunc, 167008) at a density of 1×10^3 cells/well. The plate was incubated in a 5% CO2 incubator at 37° C. for 24 hours, and then to the plate was added test compounds diluted stepwise to 100 μL/well in total, and the plate was further incubated in a 5% CO2 incubator at 37° C. for 72 hours. To the culture medium, the XTT (sodium 3′-[1-(phenylaminocarbonyl)-3,4-tetrazolium]-bis(4-methoxy-6-nitro)benzenesulfonic acid hydrate) labeling mixture (Roche Diagnostics, 1465015) was dispensed in 50 μL/well portions, then the plate was incubated in a 5% CO2 incubator at 37° C. for 1 hour, and the absorbance was measured at 490 nm and 655 nm with a microplate spectrophotometer (Bio-Rad, Model 550). The inhibitory activity against cell proliferation was shown as GI50, a concentration of compound at which induces 50% inhibition of cell proliferation.
GI50 calculation method: The value (difference in absorbance) was calculated by subtracting the absorbance at 655 nm from the absorbance at 490 nm of each well. The difference in absorbance obtained from the cells untreated with a test compound was defined as 100%, and compared with the difference in absorbance obtained from the cells treated with the solution of the compound in the known concentration, and thereby the concentration of the compound of 50% inhibition against cell proliferation was calculated to obtain GI50.

[2] = molecular target: T1, recombinant human Eg5 motor domain protein (Homo sapiens, UniProt P52732); test: Eg5 enzyme inhibition test (2), ATPase activity; type: biochemical; settings: 30° C. for 30 minutes, concentration-dependent inhibition
T1 construct: A plasmid expressing the motor domain of human Eg5 was constructed; made in house; host or cells: Escherichia coli BL21 (DE3)
T1 sequence (P52732 18-359 limits assumed): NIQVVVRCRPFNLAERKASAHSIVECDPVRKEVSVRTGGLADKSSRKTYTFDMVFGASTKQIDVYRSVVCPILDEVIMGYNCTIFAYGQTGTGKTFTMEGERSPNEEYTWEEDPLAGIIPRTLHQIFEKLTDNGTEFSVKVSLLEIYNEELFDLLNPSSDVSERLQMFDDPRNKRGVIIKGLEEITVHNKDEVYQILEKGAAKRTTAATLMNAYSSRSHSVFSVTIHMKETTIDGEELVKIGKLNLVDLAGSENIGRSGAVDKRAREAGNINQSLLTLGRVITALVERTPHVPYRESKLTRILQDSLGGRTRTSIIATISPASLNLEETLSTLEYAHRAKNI
Description: A recombinant human Eg5 motor domain protein was prepared by referring to the literature [Biochemistry, Vol. 35, p. 2365 (1996)]. A plasmid expressing the motor domain of human Eg5 was constructed, and transformed into Escherichia coli BL21 (DE3). The transformant was cultured at 25° C, and when the OD600 reached 0.74, isopropyl-β-D-thiogalactoside was added at a final concentration of 0.5 mmol/L. The transformant was further cultured for 4 hours, and then the culture medium was centrifuged to collect the cells. The cells were suspended in a buffer and ultrasonicated, and then the sonicated solution was centrifuged to recover the supernatant. The supernatant was purified by cation exchange column chromatography to obtain a partially purified sample. Furthermore, the partially purified sample was purified by gel filtration column chromatography to obtain a finally purified sample.
Measurement of the ATPase activity of Eg5 was carried out by referring to the literatures [EMBO Journal, Vol. 13, p. 751 (1994); Proc. Natl. Acad. Sci. USA, Vol. 89, p. 4884 (1992)]. The following two kinds of solutions were prepared: Solution A consisting of 25 mmol/L piperazine N,N′-bis(ethanesulfonate) (PIPES)/KOH (pH 6.8), 1 mmol/L ethylene glycol-bis(2-aminoethyl ether)tetraacetic acid (EGTA), 2 mmol/L MgCl2, 1 mmol/L dithiothreitol (DTT), 5 μmol/L paclitaxel, 167 μg/mL bovine serum albumin (BSA), 41.7 μg/mL tubulin (Cytoskeleton, Catalog No. TL238), 333 μmol/L MESG substrate (2-amino-6-mercapto-7-methylpurine riboside) (Molecular Probes, Catalog Number E-6646), 1.67 U/mL purine nucleoside phosphorylase (Molecular Probe, Catalog No. E-6646) and 1.33 μg/mL of the human Eg5 motor domain purified sample, and Solution B consisting of 25 mmol/L piperazine N,N′-bis(ethanesulfonate) (PIPES)/KOH (pH 6.8), 1 mmol/L ethylene glycol-bis(2-aminoethyl ether)tetraacetic acid (EGTA), 2 mmol/L MgCl2, 1 mmol/L dithiothreitol (DTT), 5 μmol/L paclitaxel and 2.5 mmol/L ATP. Solution A was dispensed into each well of a 96-well plate as 45 μL portions. Solution B was used to serially dilute a test compound. The diluted test compound solutions in a volume of 30 μL were mixed with Solution A added beforehand in each well of the 96-well plate to start the enzymatic reaction. The enzymatic reaction was performed at 30° C. for 30 minutes. Absorbance at 360 nm, which serves as an index of the ATPase activity, was measured using a plate reader (Molecular Device, SpectraMax 340PC^384). The absorbance observed in the presence of Eg5 and absence of the test compound was defined 100%, and the absorbance observed in the absence of both Eg5 and the test compound was defined 0%. The relative activity was calculated to calculate IC50 value.

[3] = HCT 116 cells, 72 hours incubation, XTT, 50% inhibition of cell proliferation, read-out: GI50

Structure (SMILES)	IC50 [2]	GI50 [1, 3]	GI50 ([1]; HCT-116, 72 h)
CC(=O)N1N=C(c2ccco2)SC1(C)c1ccccc1 (stereo not drawn) [Compound 1]	≤ 10000 nM		530 nM
CC(=O)N1N=C(c2ccccc2)SC1(CNS(C)(=O)=O)c1ccccc1 (stereo not drawn) [Compound 10]	≤ 10000 nM	180 nM	
CC(=O)N1N=C(C#CC(C)(C)C)SC1(CNS(C)(=O)=O)c1ccccc1 (stereo not drawn) [Compound 20]	≤ 10000 nM	200 nM	
CC(=O)N1N=C(c2ccccc2F)SC1(C)c1ccccc1 (stereo not drawn) [Compound 22]	≤ 10000 nM	83 nM	
CC(=O)N1N=C(c2cccc(F)c2)SC1(C)c1ccccc1 (stereo not drawn) [Compound 24]	≤ 10000 nM	220 nM	
CC(=O)N1N=C(C(=O)NC(C)(C)C)SC1(C)c1ccccc1 (stereo not drawn) [Compound 44]	≤ 10000 nM	410 nM	
CC(=O)N1N=C(c2ccccc2F)SC1(CNC(=O)CN)c1ccccc1 (stereo not drawn) [Compound 55]	≤ 10000 nM	< 100 nM	
CC(=O)N1N=C(C(=O)NC(C)(C)C)SC1(CNS(=O)(=O)CCN(C)C)c1ccccc1 (stereo not drawn) [Compound 68]	≤ 10000 nM	190 nM	

Now from value to compound, other results behind:

IC50 [2]	GI50 [1, 3]	Structure (SMILES)	GI50 ([1]; HCT-116, 72 h)
≤ 10000 nM	170 nM	CC(=O)N1N=C(c2cccn2C(=O)OC(C)(C)C)SC1(C)c1ccccc1 (stereo not drawn) [Compound 5]	
≤ 10000 nM	< 100 nM	CC(=O)N1N=C(c2ccccc2F)SC1(CNS(=O)(=O)CCN)c1ccccc1 (stereo not drawn) [Compound 49]	
≤ 10000 nM	< 100 nM	CC(=O)N1N=C(c2ccccc2F)SC1(CCNC(=O)CCCN(C)C)c1ccccc1 (stereo not drawn) [Compound 61]	
≤ 10000 nM	160 nM	CC(=O)N1N=C(c2ccccc2F)SC1(CCCN1CCN(C)CC1)c1ccccc1 (stereo not drawn) [Compound 62]	
